The record followed here is ChEMBL document CHEMBL3714727, “Novel dihydropyrimidinoisoquinolinones and pharmaceutical compositions thereof for the treatment of inflammatory disorders (gpr84 antagonists)” (2014).

Some results are limits rather than exact numbers.

Assay [1] concerns the target T1, G-protein coupled receptor 84 (Homo sapiens, UniProt Q9NQS5). The assay is described as follows: Antagonist activity against GPR84 (unknown origin) expressed in cell membranes assessed as inhibition of 3,3'-di-indolylmethane-induced [35S]GTPgammaS binding treated for 90 mins after 3,3'-di-indolylmethane stimulation in buffer containing 20 mM HEPES at pH 7.4 by top-count assay. The assay is classed as functional. (Binding of GTPγS marks nucleotide exchange on a G protein.)

In assay [2] the target is T1, G-protein coupled receptor 84. In words: Antagonist activity against GPR84 (unknown origin) expressed in cell membranes assessed as inhibition of 3,3'-di-indolylmethane-induced [35S]GTPgammaS binding treated for 90 mins after 3,3'-di-indolylmethane stimulation in buffer containing 20 mM Tris at pH 7.5 by top-count assay. The assay is classed as functional.

T1 sequence (Q9NQS5 whole entry): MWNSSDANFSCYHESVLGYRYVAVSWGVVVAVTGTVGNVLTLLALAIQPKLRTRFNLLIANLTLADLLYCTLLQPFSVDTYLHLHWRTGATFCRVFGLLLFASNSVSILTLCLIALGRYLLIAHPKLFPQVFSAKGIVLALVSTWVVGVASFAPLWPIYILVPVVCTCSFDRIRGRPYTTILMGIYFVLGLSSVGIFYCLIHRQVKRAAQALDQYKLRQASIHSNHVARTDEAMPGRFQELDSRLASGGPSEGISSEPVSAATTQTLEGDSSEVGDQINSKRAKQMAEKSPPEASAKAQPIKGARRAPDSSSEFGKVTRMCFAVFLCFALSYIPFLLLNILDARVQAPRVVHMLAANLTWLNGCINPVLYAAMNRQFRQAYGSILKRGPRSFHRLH

For the compound `CCN(CC)C(=O)COc1ccc2c(c1)CCn1c-2cc(OCC2CCCO2)nc1=O` (centres undefined), the IC50 (usually the concentration that inhibits the measured activity by half) in assay [1] is over 1000 nM.
On the same count and under the same terms, then `O=c1nc(OCC2CCCO2)cc2n1CCc1cc(O)ccc1-2` (centres undefined), with over 1000 nM; and `Cn1cc(-c2ccc3c(c2)CCn2c-3cc(OCC3CCCO3)nc2=O)cn1` (centres undefined), with over 1000 nM; and `CCCC(O)C#Cc1ccc2c(c1)CCn1c-2cc(OCC2COc3ncccc3O2)nc1=O` (centres undefined), with at most 100 nM.
The same measure, in the same setting: then `CN(C)C(=O)COc1ccc2c(c1)CCn1c-2cc(OCC2CCCO2)nc1=O` (centres undefined), with over 1000 nM.
For the compound `CC(C)(C)OC(=O)n1cccc1-c1ccc2c(c1)CCn1c-2cc(OCC2CCCO2)nc1=O` (centres undefined), the half-inhibitory concentration (IC50) in assay [2] was over 1000 nM.
On the same count and under the same terms, then `Cc1cccc(C)c1-c1ccc2c(c1)CCn1c-2cc(OCC2CCCO2)nc1=O` (centres undefined), with over 1000 nM.
Take `CC(C)C(O)C#Cc1ccc2c(c1)CCn1c-2cc(OCC2COc3ncccc3O2)nc1=O` (centres undefined): the IC50 in assay [1] is at most 100 nM.
The same measure, in the same setting: in the case of `O=c1nc(OCC2CCCO2)cc2n1CCc1cc(OCCOc3ccccc3)ccc1-2` (centres undefined) it was at most 100 nM.
Still for that read-out and setting: in the case of `O=C(NCC1COC1)c1ccc2c(c1)CCn1c-2cc(OCC2COc3ncccc3O2)nc1=O` (centres undefined) it was over 1000 nM.
On the same count and under the same terms, then `O=C(O)c1ccc(-c2ccc3c(c2)CCn2c-3cc(OCC3CCCO3)nc2=O)cc1` (centres undefined), with over 1000 nM.
With `O=c1nc(OCC2CCCO2)cc2n1CCc1cc(-c3cncnc3)ccc1-2` (centres undefined), the IC50 in assay [2] is over 1000 nM.
On to `O=c1nc(OCC2CCCO2)cc2n1CCc1cc(OCc3cccc([N+](=O)[O-])c3)ccc1-2` (centres undefined), for which the IC50 in assay [1] is at most 100 nM.
The same measure, in the same setting: then `COc1ccc2c(c1)CCn1c-2cc(OCC2CCc3ccccc3O2)nc1=O` (centres undefined), with over 1000 nM.
On to `CC(C)(C)NCc1ccc2c(c1)CCn1c-2cc(OCC2COc3ncccc3O2)nc1=O` (centres undefined), for which, in assay [1], the IC50 was over 1000 nM.
Still for that read-out and setting: in the case of `O=c1nc(OCC2COc3ncccc3O2)cc2n1CCc1cc(OCc3nnn[nH]3)ccc1-2` (centres undefined) it was at most 100 nM.
On the same count and under the same terms, then `O=c1nc(OCC2COc3ncccc3O2)cc2n1CCc1cc(CN3CCCCC3)ccc1-2` (centres undefined), with at most 100 nM; and `O=c1nc(OCC2CCCO2)cc2n1CCc1cc(OCc3cccc(-c4cncnc4)n3)ccc1-2` (centres undefined), with at most 500 nM.
On to `O=c1nc(OCC2COc3ncccc3O2)cc2n1CCc1cc(COC3COC3)ccc1-2` (centres undefined), for which, in assay [1], the IC50 was at most 100 nM.
Same read-out and setting: then `CC(O)C#Cc1ccc2c(c1)CCn1c-2cc(OCC2COc3ncccc3O2)nc1=O` (centres undefined), with at most 100 nM; and `N#CCOc1ccc2c(c1)CCn1c-2cc(OCC2COc3ncccc3O2)nc1=O` (centres undefined), with at most 100 nM; and `O=c1nc(OCC2COc3ccccc3O2)cc2n1CCc1cc(OCc3nnn[nH]3)ccc1-2` (centres undefined), with at most 100 nM.
`N#CCOc1ccc2c(c1)CCn1c-2cc(OCC2CCCO2)nc1=O` (centres undefined): the IC50 in assay [1] is over 1000 nM.
Regarding `O=c1nc(OCC2COc3ncccc3O2)cc2n1CCc1cc(OCc3ncco3)ccc1-2` (single isomer, unassigned), the IC50 in assay [1] is at most 100 nM.
With `CC(C)N(C)C(=O)COc1ccc2c(c1)CCn1c-2cc(OCC2CCCO2)nc1=O` (centres undefined), the IC50 in assay [1] is over 1000 nM.
Still for that read-out and setting: in the case of `O=c1nc(OCC2COc3ncccc3O2)cc2n1CCc1cc(C#CCNCc3ccccc3)ccc1-2` (centres undefined) it was at most 100 nM.
The same measure, in the same setting: in the case of `CC(C)(O)C#Cc1ccc2c(c1)CCn1c-2cc(OCC2COc3ncccc3O2)nc1=O` (centres undefined) it was at most 100 nM; in that of `O=c1nc(OCC2CCCO2)cc2n1CCc1cc(OCC3COc4ccccc4O3)ccc1-2` (centres undefined), at most 100 nM.
Still for that read-out and setting: then `CC1(COCc2ccc3c(c2)CCn2c-3cc(OCC3COc4ncccc4O3)nc2=O)COC1` (centres undefined), with at most 100 nM; and `C=CCOc1ccc2c(c1)CCn1c-2cc(OCC2CCCO2)nc1=O` (centres undefined), with over 1000 nM; and `N#Cc1ccc(-c2ccc3c(c2)CCn2c-3cc(OCC3CCCO3)nc2=O)cc1` (centres undefined), with over 1000 nM.
`COc1ccc(COc2ccc3c(c2)CCn2c-3cc(OCC3CCCO3)nc2=O)cc1` (centres undefined): the half-maximal inhibitory concentration (IC50) in assay [1] is at most 100 nM.
Regarding `CN(C)C(=O)c1cccc(-c2ccc3c(c2)CCn2c-3cc(OCC3CCCO3)nc2=O)c1` (centres undefined), the 50% inhibitory concentration (IC50) in assay [2] is over 1000 nM.
On to `O=c1nc(OCC2COc3ncccc3O2)cc2n1CCc1cc(COCCN3CCOCC3)ccc1-2` (centres undefined), for which the IC50 in assay [1] was at most 100 nM.
Same read-out and setting: in the case of `CCC(O)C#Cc1ccc2c(c1)CCn1c-2cc(OCC2COc3ncccc3O2)nc1=O` (centres undefined) it was at most 100 nM.
Still for that read-out and setting: then `O=c1nc(OCC2CCCO2)cc2n1CCc1cc(OCc3cccc(-c4ccccc4)n3)ccc1-2` (centres undefined), with over 1000 nM; and `O=c1nc(OCC2COc3ncccc3O2)cc2n1CCc1cc(OCc3ccccn3)ccc1-2` (centres undefined), with at most 100 nM.
Consider `NC(=O)COc1ccc2c(c1)CCn1c-2cc(OCC2CCCO2)nc1=O` (centres undefined), for which the IC50 in assay [1] is over 1000 nM.
Same read-out and setting: in the case of `O=c1nc(OCC2COc3ncccc3O2)cc2n1CCc1cc(-c3cn[nH]c3)ccc1-2` (centres undefined) it was at most 100 nM.
